Data published in PMC3164320 (Journal of medicinal chemistry, 2011).

Tested on: HIV-1LAI
Experiment: Antiviral MTT assay in MT-2 cells exposed to HIV-1LAI
Format: cell-based

| SMILES | fold loss of antiviral activity compared to 22 [fold] |
| --- | --- |
| CC(C)CN(C[C@@H](O)[C@H](Cc1ccccc1)NC(=O)O[C@@H]1C[C@@H]2[C@H](O)CO[C@@H]2C1)S(=O)(=O)c1ccc(N)cc1 [Inhibitor 23, (3S,3aR,5R,6aR)-3-Hydroxyhexahydro-2H-cyclopenta[b]furan-5-yl [(2S,3R)-4-(4-Amino-N-isobutylphenylsulfonamido)-3-hydroxy-1-phenylbutan-2-yl]carbamate] | 3 |
| COc1ccc(S(=O)(=O)N(CC(C)C)C[C@@H](O)[C@H](Cc2ccccc2)NC(=O)O[C@@H]2C[C@@H]3[C@H](OC)CO[C@@H]3C2)cc1 [Inhibitor 25, (3S,3aS,5R,6aR)-3-Methoxyhexahydro-2H-cyclopenta[b]furan-5-yl [(2S,3R)-3-Hydroxy-4-(N-iso-butyl-4-methoxyphenylsulfonamido)-1-phenylbutan-2-yl]carbamate] | ~5 |
